Laboratory results as given in patent publication US20250135050A1, “IODIDE NANOPARTICLES AND COMPOSITIONS OF METHODS OF USE THEREOF” (University of Georgia Research Foundation, Inc., priority 2021, published 2025).

What was measured:
NIS = NIS expression by flow cytometry; format: cell-based; details: MCF-7 cells, tRA 1 μM
Procedure: In addition to MCF-7, MDA-MB-231 cells, which have a low expression of NIS, were analyzed as a comparison.

MCF-7 cells = test: MTT cytotoxicity assay; format: cell-based; details: FIG. 3A
Procedure: Cells were seeded in 96 well-plates (Corning, 3599) with 10,000 cells/well. […] The cellular media was replaced with media of the appropriate concentration of materials and incubated for a further 24 hours. MTT reagent was then added in the culture medium, followed by incubation at 37° C. for 3 h and the resulting purple crystal solubilized in DMSO. The absorbance was measured on a microplate reader (SynergyMx) at 590 nm, with the measurements performed in at least triplicate.

SMILES	NIS expression (NIS)	toxicity of iodide (MCF-7 cells)
CC1=C(/C=C/C(C)=C/C=C/C(C)=C/C(=O)O)C(C)(C)CCC1 [tRA, Trans retinoic acid]	induced NIS expression	–
I [iodide]	–	little toxicity
